Results published in patent US20130072531A1, “SOLID DISPERSION COMPRISING AN ANTI-HIV AGENT” (AiCuris GmbH & Co. KG, priority 2009, published 2013).

Columns and labels:
[1] = X-ray diffraction of solid dispersions at T0 and after storage; format: physicochemical; conditions: after 3 weeks at 40° C., 75% RH
Experimental: The spray dried particles were collected in a reservoir attached to a cyclone, cooled down to room temperature and stored in sealed vials (room temperature, ambient relative humidity (RH)) prior to their characterisation at T0. After characterisation at T0, the spray dried solids were stored in open vials for 2 weeks (3 weeks for Comparative Example 1) in desiccators at 25° C., 60% RH and 40° C., 75% RH. X-ray diffraction (D-500, Siemens, Germany) with CuKα radiation (0.154 nm) was performed on physical mixtures of the compound of formula (I) with HPMC ES, HPC LF, HPMCP HP-50 and PVP K30 and the corresponding solid dispersions (at T0 and after 2 weeks […]) storage at both conditions), as well as spray dried compound of formula (I) without polymer (storage for three weeks under the two conditions). The angular range (2θ) varied from 15 to 60° with steps of 0.02° and the measuring time was 1 s/step.

[2] = Solubility studies: dissolution, paddle method, sodium laurylsulphate 0.5% (w/v) medium; format: physicochemical
Experimental: The compound of formula (I) both in crystalline form and spray dried (at T0 and after 3 weeks […]) storage at 25° C., 60% RH and 40° C., 75% RH respectively) as well as the solid dispersions of Examples 1 to 4 (at T0 and after 2 weeks […]) storage at 25° C., 60% RH and 40° C., 75% RH respectively) and Example 5 at T0 only were introduced in a VK 7000 dissolution system (VanKel, New Jersey, USA), using the paddle method, combined with a VK 8000 automatic sampling station (n=3). Sodium laurylsulphate 0.5% (w/v) was used as dissolution medium. The temperature of the medium (900 ml) was kept at 37±0.5 ° C., while the rotational speed of the paddles was set at 100 rpm. Samples (filtered using Full Flow Filters (Varian) -35 μm) of 5 ml were withdrawn at 5, 10, 15, 20, 30, 45 and 60 min and spectrophotometrically analysed at 240 nm by UV-spectrophotometry, type UV-1650 (Shimadzu, Deurne, Belgium) (w/w dilution if necessary), using an appropriate calibration curve. Each vessel contained approximately 150 mg of the compound of formula (I).

[3] = Storage experiments, visual inspection; format: physicochemical; conditions: open vials, 2 weeks (3 weeks Comparative Example 1), 25° C., 60% RH and 40° C., 75% RH
Experimental: The spray dried particles were collected in a reservoir attached to a cyclone, cooled down to room temperature and stored in sealed vials (room temperature, ambient relative humidity (RH)) prior to their characterisation at T0. After characterisation at T0, the spray dried solids were stored in open vials for 2 weeks (3 weeks for Comparative Example 1) in desiccators at 25° C., 60% RH and 40° C., 75% RH.

[4] = test system: wild-type and resistant HIV strains; assay: Activity against HIV strains (experiences so far)
[5] = Water solubility of crystals (experiences so far); format: physicochemical

SMILES	formation of the crystalline form of the compound of formula (I) (X-ray) [1]	compound of formula (I) dissolved after 60 minutes after storage ([2]; after storage at 40° C., 75% RH for three weeks, 60 min) [%]	compound of formula (I) dissolved / released after 30 minutes ([2]; fresh (T0), sodium laurylsulphate 0.5% (w/v), 900 ml, 37 °C, 100 rpm, 30 min)	storage stability to visual inspection (colouration) [3]	activity against wild-type and resistant HIV strains [4]	compound of formula (I) dissolved / released after 60 minutes ([2]; fresh (T0), sodium laurylsulphate 0.5% (w/v), 900 ml, 37 °C, 100 rpm, 60 min)	water solubility of crystals [5]
O=C1CN(C(=O)c2cc(-c3cc(F)cc(Cl)c3)n(-c3ccc(F)c(Cl)c3)n2)CN1 [Comparative Example 1]	formation of a large amount of the crystalline form	35	about 60%	storage stable			
O=C1CN(C(=O)c2cc(-c3cc(F)cc(Cl)c3)n(-c3ccc(F)c(Cl)c3)n2)CN1 [compound of formula (I)]					highly active	about 40%	only sparingly water-soluble
